The source of these data is paper PMC6438679, “New lupeol esters as active substances in the treatment of skin damage” (PLoS ONE, 2019).

Broadly, the melting point is the temperature of the solid-liquid transition.

Data set [1] concerns Reconstructed Human Epidermis (RHE) EpiDerm. In words: In vitro Skin Irritation Test on Reconstructed Human Epidermis (MTT viability). As to conditions: for increase of cell concentration in comparison to control samples: RHE model, proliferation.
Description: A Skin Irritation Test was prepared according to SOP (Standard Operation Protocol) of In vitro Skin Irritation Test (ECVAM): Human Skin Model, EpiDerm-200, Version: 7.0, 30th Oct 2007.
Standard EpiDermFT kit (MatTek Corporation) consisted of 24 tissues. Costar Snapwell single well tissue culture plate inserts had the surface area of about 1.0 cm^2 and the diameter of about 1.2 cm. Moreover inserts were equipped with pores (size 0.4 μm diameter). Before test, all tissues were visually inspected if there are any physical imperfections. […] The culture medium was fed through a microporous membrane. The tissue contained 8–12 cell layers plus stratum corneum (basal, spinous, and granular layers) [35].
In vitro skin irritation test was prepared according to the procedure described by Kandarova et al. [35]. On the first day, tissues were topically exposed to the oil solutions of tested triterpenes. White crystals of each compound were dissolved in caprylic and capric triglyceride (Crodamol GTCC, Croda). The esters concentration in the solutions was 0.5% (m/m). Three tissues were used for each tested substance, as well as for the positive and negative control. Positive control solution consisted of 5% aq. solution of SDS (Sodium Dodecyl Sulfate, Mattek), and a negative control solution consisted of Caprylic and Capric Triglycerides (Crodamol GTCC, Croda). Chemical exposure time was 60 min, during which, for 35 min, the tissues were kept in an incubator at 37°C (chamber Heraeus, Kendro). The test substances were then removed from the tissue surface by an extensive washing procedure using DPBS (phosphate-buffered saline, pH = 7.4, Mattek). The tissue inserts were blotted and transferred to fresh medium.
After 24 hours of incubation, the medium was exchanged and the tissues were incubated for an additional 18 hours. After 42 hours of incubation time, the tissues were transferred into a yellow solution of MTT (3-(4,5-dimethylthiazol-2-yl)-2,5-diphenyltetrazolium bromide, Mattek) and incubated for a further 3 hours. The resultant purple-blue formazan salt, formed mainly by mitochondrial metabolism, was extracted after 2 hours with isopropanol, pure (Mattek). The optical density (OD570) of the extracted formazan solution was determined using a spectrophotometer (Biotek, PowerWave XS). Cells viability assay was calculated referring to the negative control tissues. A substance is classified as an irritant if the tissue viability relative to the negative control treated tissues is reduced below 50%.

Structures can show the parent of a compound that is named as a salt.

With `C=C(C)C1CCC2(C)CCC3(C)C(CCC4C5(C)CCC(OC(=O)CC)C(C)(C)C5CCC43C)C12` (stereo not drawn) [Compound 3, Lupeol propionate], the melting point fell in the range of 220 to 222 °C. For the same compound, the “increase of cell concentration in comparison to control samples” value (“increase of cell concentration” below) in data set [1] was “more than 30%”.

For the compound `C=C(C)[C@@H]1CC[C@]2(C)CC[C@]3(C)[C@H](CC[C@@H]4[C@@]5(C)CC[C@H](OC(=O)c6ccncc6)C(C)(C)[C@@H]5CC[C@]43C)[C@@H]12` [Compound 4, Lupeol isonicotinate], the melting point was 179 to 183 °C. Also, in data set [1], the “increase of cell concentration” value is listed as “more than 30%”.

`CCCCCCCCCCCCOS(=O)(=O)[O-].[Na+]` [PC, Sodium Dodecyl Sulfate, reference compound]: the “Viability [%] / SD” value in data set [1] (Epiderm, 0.5% (m/m) in caprylic and capric triglyceride, 60 min exposure, 42 h incubation, MTT, relative to negative control, n = 3) is recorded as 28.1%.

Consider `C=C(C)C1CCC2(C)CCC3(C)C(CCC4C5(C)CCC(OC(=O)CCC(=O)O)C(C)(C)C5CCC43C)C12` (stereo not drawn) (as salt: succinate) [Compound 5, Lupeol succinate], for which the melting point fell in the range of 221 to 223 °C.

For `C=C(C)C1CCC2(C)CCC3(C)C(CCC4C5(C)CCC(OC(C)=O)C(C)(C)C5CCC43C)C12` (stereo not drawn) [Compound 2, Lupeol acetate], the melting point is 216 to 219 °C. The “increase of cell concentration” value in data set [1] was “more than 30%”.

As for `C=C(C)[C@@H]1CC[C@]2(C)CC[C@]3(C)[C@H](CC[C@@H]4[C@@]5(C)CC[C@H](OC(=O)c6ccccc6OC(C)=O)C(C)(C)[C@@H]5CC[C@]43C)[C@@H]12` [Compound 6, Lupeol acetylsalicylate], the melting point fell in the range of 226 to 229 °C.
